Measurements: patent US4085096A, “Hexapeptides and methods for their production” (Parke, Davis & Company, priority 1976, dated 1978)
Values joined by “and” are separate entries in the source; they are usually repeats but may differ in a detail not shown here. Equal entries are not always repeated.

System: LRF (luteinizing hormone releasing factor) induced luteinizing hormone (LH) release
Experiment: In vitro LRF antagonist test in rat anterior pituitary cell cultures
Format: cell-based
Details: for % LH Release Inhibition: test compound Molar Conc. 1 × 10^-6
From the text: Hexapeptides of this invention were screened for LRF antagonist activity in vitro using rat anterior pituitary cell cultures as described by Vale et. al. [Endocrinology, 91, 562 (1972)]. The inhibition of LRF (luteinizing hormone releasing factor) induced luteinizing hormone (LH) release into the culture medium is the endpoint in this in vitro bioassay.

[1] = test compound Molar Conc. 1 × 10^-6, LH released into culture medium

Substance | LH Value (LRF Control, Molar Conc. 2.5 × 10^-10) [ng/mL] | LH Value (LRF Control, Molar Conc. 3.5 × 10^-10) | % LH Release Inhibition [%] | LH Value [1] [ng/mL]
LRF: luteinizing hormone releasing factor; stimulates secretion of luteinizing hormone from the anterior pituitary; used as stimulus control (QHWSYGLRPG; Gonadoliberin-1; UniProt P01148 24-33, looked up) [reference compound] | 38.98 | 66.03 ng/mL and 35.60 ng/mL |  | 
N^α -t-Butoxycarbonyl-N^im -benzyl-L-histidyl-L-tryptophyl-N^im -benzyl-L-histidyl-O-benzyl-L-tyrosyl-O-benzyl-L-seryl-D-alanine N-ethylamide |  |  | 73 | 24.80
N^α -Benzyloxycarbonyl-L-glutaminyl-L-tryptophyl-N^im -benzyl-L-histidyl-O-benzyl-L-tyrosyl-O-benzyl-L-seryl-D-alanine methyl ester |  |  | 86 | 13.53
N^α -t-Butoxycarbonyl-L-tryptophyl-N^im -benzyl-L-histidyl-O-benzyl-L-tyrosyl-O-benzyl-L-seryl-L-prolyl-D-alanine N-ethylamide |  |  | 100 | 5.57
